Laboratory results from patent US20100216798A1, “FUSED HETEROCYCLES AS LCK INHIBITORS” (ASTELLAS PHARMA INC, priority 2005, published 2010).

Target: T1, Purified Lck (Upstate) (Homo sapiens, UniProt P06239)
T1 construct: purchased Upstate
Assay: Assay for Lck Activity
Type: biochemical
Settings: Src substrate peptide-coated plate ELISA, 0.05 mM ATP, 30° C. for 60 minutes, anti-phosphotyrosine HRP detection
Protocol: The Src substrate peptide (Upstate) was coated onto 96-well Maxisorp plates (Nunc). Plates were sealed and incubated at 4° C., for 16 hours, washed three times with TBST (20 mM Tris-HCl pH 7.5, 150 mM NaCl and 0.1% Tween-20). The plates were blocked with 0.1% BSA and washed three times with TBST. Purified Lck (Upstate) was incubated in 100 mM Tris-HCl pH 7.5, 125 mM MgCl2, 25 mM MnCl2, 2 mM EGTA, 0.25 mM Sodium Vanadate, 2 mM DTT, 0.05 mM ATP with or without inhibitors at 30° C. for 60 minutes and washed with TBST three times. For quantification of phosphorylated tyrosines, plates were incubated with anti-phosphotyrosine, HRP conjugate (4G10, Upstate) for 1 hour at ambient temperature and washed three times with TBST. Detection was carried out using a color reagent, TMB (KPL). Ten minute after TMB addition the OD at 450 nm was measured.

T1 sequence (P06239 whole entry, species assumed): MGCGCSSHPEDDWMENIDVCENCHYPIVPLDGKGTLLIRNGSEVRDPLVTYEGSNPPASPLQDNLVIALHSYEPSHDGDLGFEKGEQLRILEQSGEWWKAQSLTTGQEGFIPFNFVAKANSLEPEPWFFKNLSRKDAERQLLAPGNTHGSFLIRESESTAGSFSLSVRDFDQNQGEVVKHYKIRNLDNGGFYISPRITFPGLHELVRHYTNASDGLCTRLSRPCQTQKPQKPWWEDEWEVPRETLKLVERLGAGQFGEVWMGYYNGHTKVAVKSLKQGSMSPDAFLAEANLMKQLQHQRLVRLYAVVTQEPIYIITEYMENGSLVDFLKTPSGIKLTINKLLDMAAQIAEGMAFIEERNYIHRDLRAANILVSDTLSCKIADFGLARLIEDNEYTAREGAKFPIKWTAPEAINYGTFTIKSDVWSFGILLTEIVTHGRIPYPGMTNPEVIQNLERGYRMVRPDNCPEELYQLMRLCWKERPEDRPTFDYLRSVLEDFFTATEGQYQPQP

| Structure (SMILES) | IC50 [nM] |
| --- | --- |
| c1cc(-c2cnc3ccc(NC4CCOCC4)nn23)ccn1 [Example 16, 3-(4-pyridinyl)-N-(tetrahydro-2H-pyran-4-yl)imidazo[1,2-b]pyridazin-6-amine] | 460 |
| c1cc(-c2cnc3ccc(NC4CCCCC4)nn23)ccn1 [Example 44, N-Cyclohexyl-3-(4-pyridinyl)imidazo[1,2-b]pyridazin-6-amine] | 380 |
| c1ccc(Nc2ccc3ncc(-c4ccncc4)n3n2)cc1 [Example 47, N-Phenyl-3-(4-pyridinyl)imidazo[1,2-b]pyridazin-6-amine] | 350 |
| c1cc(Nc2ccc3ncc(-c4ccncc4)n3n2)ccn1 [Example 106, N,3-Di-4-pyridinylimidazo[1,2-b]pyridazin-6-amine] | 410 |
| c1cc(-c2cnc3ccc(NC45CC6CC(CC(C6)C4)C5)nn23)ccn1 [Example 249, N-1-Adamantyl-3-(4-pyridinyl)imidazo[1,2-b]pyridazin-6-amine] | 320 |

Compounds with a lower IC50, results first:

| IC50 [nM] | Structure (SMILES) |
| --- | --- |
| 310 | c1ccc(CNc2ccc3ncc(-c4ccncc4)n3n2)cc1 [Example 102, N-Benzyl-3-(4-pyridinyl)imidazo[1,2-b]pyridazin-6-amine] |
| 97 | O[C@H]1CC[C@H](Nc2ccc3ncc(-c4ccnc(F)c4)n3n2)CC1 [Example 153, trans-4-{[3-(2-Fluoro-4-pyridinyl)imidazo[1,2-b]pyridazin-6-yl]amino}cyclohexanol] |
| 81 | Oc1c(Cl)cc(-c2cnc3ccc(N[C@H]4CC[C@H](O)CC4)nn23)cc1Cl [Example 127, 2,6-dichloro-4-{6-[(trans-4-hydroxycyclohexyl)amino]imidazo[1,2-b]pyridazin-3-yl}phenol] |
